According to PubChem BioAssay (NCI):
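Results reflect a 48-hour exposure of cells in 96-well plates to compound at five concentrations. TGI: total growth inhibition.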

How the values were obtained:
Experiment in all cases: NCI tumour cell line growth inhibition, 48 h
[1] = tested on: RPMI-8226 leukemia
[2] = tested on: DLD-1 colon
[3] = tested on: P388/ADR leukemia
[4] = tested on: CCRF-CEM leukemia
[5] = tested on: P388 leukemia
[6] = tested on: HCC-2998 colon
[7] = tested on: SNB-75 CNS
[8] = tested on: K-562 leukemia
[9] = tested on: HCT-116 colon
[10] = tested on: UACC-257 melanoma
[11] = tested on: NCI-H522 lung
[12] = tested on: XF 498 CNS
[13] = tested on: SF-539 CNS
[14] = tested on: HCT-15 colon
[15] = tested on: SN12C renal
[16] = tested on: A498 renal
[17] = tested on: NCI-H23 lung
[18] = tested on: MOLT-4 leukemia
[19] = tested on: SK-MEL-5 melanoma
[20] = tested on: OVCAR-5 ovarian
[21] = tested on: PC-3 prostate
[22] = tested on: RXF 393 renal
[23] = tested on: TK-10 renal
[24] = tested on: ACHN renal
[25] = tested on: SNB-19 CNS
[26] = tested on: OVCAR-4 ovarian
[27] = tested on: HOP-62 NSCLC
[28] = tested on: HOP-92 NSCLC
[29] = tested on: U251 CNS
[30] = tested on: LOX IMVI melanoma
[31] = tested on: SK-MEL-2 melanoma
[32] = tested on: 786-0 renal
[33] = tested on: SK-OV-3 ovarian
[34] = tested on: NCI-H460 lung
[35] = tested on: MALME-3M melanoma
[36] = tested on: LXFL 529 NSCLC
[37] = tested on: COLO 205 colon
[38] = tested on: KM12 colon
[39] = tested on: HL-60(TB) leukemia
[40] = tested on: SF-268 CNS
[41] = tested on: IGROV1 ovarian
[42] = tested on: HT29 colon
[43] = tested on: OVCAR-3 ovarian
[44] = tested on: OVCAR-8 ovarian
[45] = tested on: UO-31 renal
[46] = tested on: HOP-18 NSCLC
[47] = tested on: EKVX NSCLC
[48] = tested on: NCI-H226 lung
[49] = tested on: SF-295 CNS
[50] = tested on: RXF-631 renal
[51] = tested on: SK-MEL-28 melanoma
[52] = tested on: SNB-78 CNS
[53] = tested on: A549 NSCLC
[54] = tested on: M19-MEL melanoma
[55] = tested on: KM20L2 colon
[56] = tested on: CAKI-1 renal
[57] = tested on: M14 melanoma
[58] = tested on: DMS 273 small cell lung
[59] = tested on: UACC-62 melanoma

`CCCCCCCCCCNC1CC(OC2CC(O)(C(O)CO)Cc3c(O)c4c(c(O)c32)C(=O)c2c(OC)cccc2C4=O)OC(C)C1O` (centres undefined) showed a TGI [1] of 3.73 µM, a TGI [2] of 2.28 µM and a TGI [3] of 3.34 µM. The TGI [4] was 4.91 µM, the TGI [5] was 0.362 µM and the TGI [6] was 2.74 µM. The TGI [7] was 2.74 µM, the TGI [8] was 0.963 µM and the TGI [9] was 0.65 µM. It also gave a TGI [10] of 3.05 µM, a TGI [11] of 3.73 µM and a TGI [12] of 3.34 µM. It also gave a TGI [13] of 3.41 µM, a TGI [14] of 4 µM and a TGI [15] of 3.4 µM. The TGI [16] was 2.62 µM, the TGI [17] was 12.6 µM and the TGI [18] was 0.9 µM. The TGI [19] was 3.06 µM, the TGI [20] was 3.29 µM and the TGI [21] was 2.85 µM. It also gave a TGI [22] of 2.75 µM and a TGI [23] of 56.5 µM.

`CCOC(=O)C1=C(OC(OCC)C(CC)[Se]c2ccccc2)CCCC1` (centres undefined) was tested, and the TGI [1] was 39.3 µM, the TGI [2] was 35.5 µM and the TGI [24] was 82.2 µM. It also gave a TGI [4] of 38.7 µM, a TGI [25] of over 100 µM and a TGI [6] of over 100 µM. It also gave a TGI [7] of 54.8 µM, a TGI [26] of 33 µM and a TGI [27] of over 100 µM. For the same molecule, the TGI [8] was over 100 µM, the TGI [28] was 46 µM and the TGI [9] was 45 µM. The TGI [29] was 31 µM, the TGI [30] was 18.7 µM and the TGI [10] was over 100 µM. It also gave a TGI [11] of 28.4 µM, a TGI [31] of 43 µM and a TGI [12] of 46.5 µM. The TGI [32] was 28.9 µM, the TGI [33] was over 100 µM and the TGI [13] was 35.4 µM. For the same molecule, the TGI [34] was over 100 µM, the TGI [14] was 41.2 µM and the TGI [35] was 97.7 µM. It also gave a TGI [15] of 34.1 µM, a TGI [36] of 91.8 µM and a TGI [37] of over 100 µM. For the same molecule, the TGI [38] was over 100 µM, the TGI [39] was 47.8 µM and the TGI [40] was 41.6 µM. The TGI [41] was over 100 µM, the TGI [42] was 62 µM and the TGI [43] was 65.7 µM. The TGI [16] was over 100 µM, the TGI [17] was 25.5 µM and the TGI [44] was 42.1 µM. For the same molecule, the TGI [18] was 52.1 µM, the TGI [19] was 35.8 µM and the TGI [45] was over 100 µM. The TGI [46] was 86.4 µM, the TGI [47] was 78.9 µM and the TGI [20] was 67.7 µM. The TGI [48] was 61.3 µM, the TGI [49] was 55.6 µM and the TGI [50] was 27.9 µM. For the same molecule, the TGI [22] was 37.7 µM, the TGI [51] was over 100 µM and the TGI [52] was over 100 µM. For the same molecule, the TGI [53] was over 100 µM, the TGI [54] was 33 µM and the TGI [55] was 37.3 µM. The TGI [56] was over 100 µM, the TGI [57] was 34.2 µM and the TGI [23] was over 100 µM. It also gave a TGI [58] of 29.2 µM and a TGI [59] of 62.9 µM.
